We go through 24 compounds from patent US9216999B2, “Substituted pyrrolo[2,3-h][1,6]naphthyridines and compositions thereof as JAK inhibitors” (priority 2011, dated 2015).

Where two headings read alike, the source gives them in different places.

As a reminder, the IC50 is the concentration at which inhibition is half-maximal.

What all share (type): biochemical
In one test the target is JAK3 (Homo sapiens (Human), UniProt P52333). As to the kind of experiment: Enzyme assay (Assay Example^a 1), JAK3.
Sequence of JAK3 (P52333 whole entry): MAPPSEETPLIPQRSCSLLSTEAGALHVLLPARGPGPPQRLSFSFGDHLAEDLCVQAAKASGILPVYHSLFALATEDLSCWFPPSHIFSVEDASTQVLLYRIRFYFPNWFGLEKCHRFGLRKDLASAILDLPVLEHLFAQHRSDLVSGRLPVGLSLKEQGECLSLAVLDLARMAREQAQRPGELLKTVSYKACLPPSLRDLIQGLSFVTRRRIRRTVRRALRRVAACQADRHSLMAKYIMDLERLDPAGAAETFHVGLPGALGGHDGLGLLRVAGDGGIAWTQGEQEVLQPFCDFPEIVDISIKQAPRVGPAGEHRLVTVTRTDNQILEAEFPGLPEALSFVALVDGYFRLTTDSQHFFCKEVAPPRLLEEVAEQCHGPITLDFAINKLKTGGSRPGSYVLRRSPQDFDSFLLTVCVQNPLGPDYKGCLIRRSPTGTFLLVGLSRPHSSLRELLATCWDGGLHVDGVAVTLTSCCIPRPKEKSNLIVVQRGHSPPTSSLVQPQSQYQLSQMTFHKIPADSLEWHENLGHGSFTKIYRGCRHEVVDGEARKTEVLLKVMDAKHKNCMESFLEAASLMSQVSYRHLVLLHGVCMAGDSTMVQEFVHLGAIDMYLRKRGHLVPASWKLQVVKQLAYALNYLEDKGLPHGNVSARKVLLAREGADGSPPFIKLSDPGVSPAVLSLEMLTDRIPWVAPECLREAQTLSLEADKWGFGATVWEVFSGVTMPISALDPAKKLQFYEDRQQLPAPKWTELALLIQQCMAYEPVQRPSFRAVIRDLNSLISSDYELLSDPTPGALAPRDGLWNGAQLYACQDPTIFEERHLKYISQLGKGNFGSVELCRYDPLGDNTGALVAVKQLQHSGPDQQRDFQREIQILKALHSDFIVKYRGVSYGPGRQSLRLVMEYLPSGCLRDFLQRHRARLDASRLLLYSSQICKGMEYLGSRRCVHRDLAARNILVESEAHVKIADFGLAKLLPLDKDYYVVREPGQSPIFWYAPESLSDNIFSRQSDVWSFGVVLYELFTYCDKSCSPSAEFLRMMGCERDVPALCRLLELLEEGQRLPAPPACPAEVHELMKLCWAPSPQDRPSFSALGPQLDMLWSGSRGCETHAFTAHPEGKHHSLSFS
A further test addresses Tyk2 (Homo sapiens (Human), UniProt P29597). The experiment in a line: Enzyme assay (Assay Example^a 1), Tyk2. The note with it: ATP 100 μM.
For a further test, the target named is JAK2 (Homo sapiens (Human), UniProt O60674). As to the kind of experiment: Enzyme assay (Assay Example^a 1), JAK2.
The target in another test is JAK1 (Homo sapiens (Human), UniProt P23458). The experiment in a line: Enzyme assay (Assay Example^a 1), JAK1. The note with it: ATP 100 μM.

Sequence of Tyk2 (P29597 whole entry): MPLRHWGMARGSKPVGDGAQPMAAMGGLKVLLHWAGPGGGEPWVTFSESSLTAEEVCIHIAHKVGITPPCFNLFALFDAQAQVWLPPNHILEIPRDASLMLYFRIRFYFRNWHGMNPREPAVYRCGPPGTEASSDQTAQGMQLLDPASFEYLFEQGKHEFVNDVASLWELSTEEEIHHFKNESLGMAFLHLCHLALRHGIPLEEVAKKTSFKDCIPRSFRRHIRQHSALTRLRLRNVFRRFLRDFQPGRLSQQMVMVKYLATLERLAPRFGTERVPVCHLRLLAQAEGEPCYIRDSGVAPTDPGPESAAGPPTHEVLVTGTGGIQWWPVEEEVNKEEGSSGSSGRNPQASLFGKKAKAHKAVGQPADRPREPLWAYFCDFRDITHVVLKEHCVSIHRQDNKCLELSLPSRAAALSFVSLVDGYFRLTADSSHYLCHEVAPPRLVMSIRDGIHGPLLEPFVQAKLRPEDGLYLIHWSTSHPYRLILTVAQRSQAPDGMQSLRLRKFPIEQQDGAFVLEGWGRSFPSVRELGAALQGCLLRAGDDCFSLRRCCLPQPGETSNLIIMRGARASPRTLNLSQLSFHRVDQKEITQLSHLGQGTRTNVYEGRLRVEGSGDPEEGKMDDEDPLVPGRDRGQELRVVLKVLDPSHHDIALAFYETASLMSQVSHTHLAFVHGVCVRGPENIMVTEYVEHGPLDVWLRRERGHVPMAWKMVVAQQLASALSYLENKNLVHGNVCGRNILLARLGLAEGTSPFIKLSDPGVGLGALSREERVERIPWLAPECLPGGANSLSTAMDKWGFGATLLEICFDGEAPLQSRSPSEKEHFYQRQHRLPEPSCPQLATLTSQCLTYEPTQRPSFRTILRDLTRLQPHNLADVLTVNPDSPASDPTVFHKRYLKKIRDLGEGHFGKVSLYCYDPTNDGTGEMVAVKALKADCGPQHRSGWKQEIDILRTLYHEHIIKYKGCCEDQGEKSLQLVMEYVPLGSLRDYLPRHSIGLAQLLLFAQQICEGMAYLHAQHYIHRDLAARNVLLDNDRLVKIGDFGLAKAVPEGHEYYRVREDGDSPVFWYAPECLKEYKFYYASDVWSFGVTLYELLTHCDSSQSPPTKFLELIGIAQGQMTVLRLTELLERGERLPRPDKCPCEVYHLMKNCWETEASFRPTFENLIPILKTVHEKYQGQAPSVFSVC

With `Fc1ccc(CN[C@H]2CC[C@@H](c3nnn4cnc5[nH]ccc5c34)CC2)cc1` [195a, cis-N-(4-fluorobenzyl)-4-(7H-pyrrolo[3,2-e][1,2,3]triazolo[1,5-c]pyrimidin-1-yl)cyclohexanamine], the IC50 on JAK3 (ATP 100 μM, Table^a 154) was above 1 µM; against Tyk2 (Table^a 154) it was 0.31 µM; against JAK2 (ATP 100 μM, Table^a 154), 0.55 µM; at JAK1 (Table^a 154) it was 0.03 µM.
For `Fc1ccc(CN[C@H]2CC[C@H](c3nnn4cnc5[nH]ccc5c34)CC2)cc1` [195b, trans-N-(4-fluorobenzyl)-4-(7H-pyrrolo[3,2-e][1,2,3]triazolo[1,5-c]pyrimidin-1-yl)cyclohexanamine], in that order: 0.56 µM, 0.12 µM, 0.042 µM and 0.007 µM.
For `Clc1ccc(CCN[C@H]2CC[C@H](c3nnn4cnc5[nH]ccc5c34)CC2)cc1` [198b, trans-N-(4-chlorophenethyl)-4-(7H-pyrrolo[3,2-e][1,2,3]triazolo[1,5-c]pyrimidin-1-yl)cyclohexanamine], in that order: 0.4 µM, 0.065 µM, 0.037 µM and 0.0025 µM.
For `Fc1ccc(CCN[C@H]2CC[C@H](c3nnn4cnc5[nH]ccc5c34)CC2)cc1` [201b, trans-N-(4-fluorophenethyl)-4-(7H-pyrrolo[3,2-e][1,2,3]triazolo[1,5-c]pyrimidin-1-yl)cyclohexanamine], in that order: 0.41 µM, 0.1 µM, 0.066 µM and 0.0039 µM.
Regarding `FC(F)(Br)CN[C@H]1CC[C@@H](c2nnn3cnc4[nH]ccc4c23)CC1` [382a, cis-N-(2-bromo-2,2-difluoroethyl)-4-(7H-pyrrolo[3,2-e][1,2,3]triazolo[1,5-c]pyrimidin-1-yl)cyclohexanamine], the IC50 at JAK3 was found to be 0.75 µM; against Tyk2, 0.76 µM; at JAK2, 0.063 µM; at JAK1 it was 0.015 µM.
For `FC(F)(Br)CN[C@H]1CC[C@H](c2nnn3cnc4[nH]ccc4c23)CC1` [382b, trans-N-(2-bromo-2,2-difluoroethyl)-4-(7H-pyrrolo[3,2-e][1,2,3]triazolo[1,5-c]pyrimidin-1-yl)cyclohexanamine], the IC50 against JAK3 stood at 0.07 µM; against Tyk2, 0.013 µM; at JAK2 it was 0.0028 µM; against JAK1, 0.00031 µM.
For `FC(F)(F)C(F)(F)CN[C@H]1CC[C@@H](c2nnn3cnc4[nH]ccc4c23)CC1` [383a, cis-N-(2,2,3,3,3-pentafluoropropyl)-4-(7H-pyrrolo[3,2-e][1,2,3]triazolo[1,5-c]pyrimidin-1-yl)cyclohexanamine], the IC50 against JAK3 (ATP 100 μM) was above 1 µM; on Tyk2, above 1 µM; on JAK2 (ATP 100 μM) it was 0.37 µM; on JAK1, 0.09 µM.
For the compound `FC(F)(F)C(F)(F)CN[C@H]1CC[C@H](c2nnn3cnc4[nH]ccc4c23)CC1` [383b, trans-N-(2,2,3,3,3-pentafluoropropyl)-4-(7H-pyrrolo[3,2-e][1,2,3]triazolo[1,5-c]pyrimidin-1-yl)cyclohexanamine], the IC50 worked out at 0.5 µM at JAK3 (ATP 100 μM), 0.17 µM against Tyk2, 0.013 µM on JAK2 (ATP 100 μM) and 0.0015 µM against JAK1.
For `O=C(CN[C@H]1CC[C@@H](c2nnn3cnc4[nH]ccc4c23)CC1)NCC(F)(F)F` [384a, 2-{[cis-4-(7H-pyrrolo[3,2-e][1,2,3]triazolo[1,5-c]pyrimidin-1-yl)cyclohexyl]amino}-N-(2,2,2-trifluoroethyl)acetamide], in that order: above 1 µM, above 1 µM, 0.56 µM and 0.087 µM.
Consider `O=C(CN[C@H]1CC[C@H](c2nnn3cnc4[nH]ccc4c23)CC1)NCC(F)(F)F` [384b, 2-{[trans-4-(7H-pyrrolo[3,2-e][1,2,3]triazolo[1,5-c]pyrimidin-1-yl)cyclohexyl]amino}-N-(2,2,2-trifluoroethyl)acetamide], for which the 50% inhibitory concentration (IC50) is above 1 µM at JAK3 (ATP 100 μM), above 1 µM on Tyk2, 0.08 µM against JAK2 (ATP 100 μM) and 0.022 µM against JAK1.
Turning to `OC(CN[C@H]1CC[C@H](c2nnn3cnc4[nH]ccc4c23)CC1)(c1cccnc1)C(F)(F)F` (stereo partly drawn) [385b, 3-{[trans-4-(7H-pyrrolo[3,2-e][1,2,3]triazolo[1,5-c]pyrimidin-1-yl)cyclohexyl]amino}-1,1,1-trifluoro-2-(pyridin-3-yl)propan-2-ol], the IC50 was 0.18 µM against JAK3 (ATP 100 μM), 0.21 µM against Tyk2, 0.031 µM on JAK2 (ATP 100 μM) and 0.0019 µM against JAK1.
For `CSc1ccc(C(O)(CN[C@H]2CC[C@H](c3nnn4cnc5[nH]ccc5c34)CC2)C(F)(F)F)cc1` (stereo partly drawn) [386b, 3-{[trans-4-(7H-pyrrolo[3,2-e][1,2,3]triazolo[1,5-c]pyrimidin-1-yl)cyclohexyl]amino}-1,1,1-trifluoro-2-[4-(methylthio)phenyl]propan-2-ol] the same measures were 0.28 µM, 0.39 µM, 0.027 µM and 0.0017 µM.
Turning to `COc1ccc(C(O)(CN[C@H]2CC[C@H](c3nnn4cnc5[nH]ccc5c34)CC2)C(F)(F)F)cn1` (stereo partly drawn) [387b, 3-{[trans-4-(7H-pyrrolo[3,2-e][1,2,3]triazolo[1,5-c]pyrimidin-1-yl)cyclohexyl]amino}-1,1,1-trifluoro-2-(6-methoxypyridin-3-yl)propan-2-ol], the IC50 was 0.12 µM at JAK3 (ATP 100 μM), 0.18 µM against Tyk2, 0.032 µM on JAK2 (ATP 100 μM) and 0.0019 µM at JAK1.
For `COc1ccc(C(O)(CN[C@H]2CC[C@H](c3nnn4cnc5[nH]ccc5c34)CC2)C(F)(F)F)cc1` (stereo partly drawn) [388b, 3-{[trans-4-(7H-pyrrolo[3,2-e][1,2,3]triazolo[1,5-c]pyrimidin-1-yl)cyclohexyl]amino}-1,1,1-trifluoro-2-(4-methoxyphenyl)propan-2-ol] the same measures were 0.26 µM, 0.21 µM, 0.025 µM and 0.0012 µM.
Take `COc1ccc(C(O)(CN[C@H]2CC[C@H](c3nnn4cnc5[nH]ccc5c34)CC2)C(F)(F)F)cc1OC` (stereo partly drawn) [390b, 3-{[trans-4-(7H-pyrrolo[3,2-e][1,2,3]triazolo[1,5-c]pyrimidin-1-yl)cyclohexyl]amino}-2-(3,4-dimethoxyphenyl)-1,1,1-trifluoropropan-2-ol]: the IC50 against JAK3 (ATP 100 μM) is 0.52 µM; against Tyk2, 0.36 µM; at JAK2 (ATP 100 μM), 0.089 µM; at JAK1 it was 0.0024 µM.
For `N#Cc1ccc(CCN[C@H]2CC[C@H](c3nnn4cnc5[nH]ccc5c34)CC2)cc1` [391b, 4-(2-{[trans-4-(7H-pyrrolo[3,2-e][1,2,3]triazolo[1,5-c]pyrimidin-1-yl)cyclohexyl]amino}ethyl)benzonitrile] the same measures were above 1 µM, 0.58 µM, 0.39 µM and 0.018 µM.
For `c1cc2c(ncn3nnc([C@H]4CC[C@H](NC5CC5)CC4)c23)[nH]1` [392b, trans-N-cyclopropyl-4-(7H-pyrrolo[3,2-e][1,2,3]triazolo[1,5-c]pyrimidin-1-yl)cyclohexanamine], in that order: 0.61 µM, 0.33 µM, 0.08 µM and 0.014 µM.
With `N#CCN[C@H]1CC[C@H](c2nnn3cnc4[nH]ccc4c23)CC1` [393b, 2-{[trans-4-(7H-pyrrolo[3,2-e][1,2,3]triazolo[1,5-c]pyrimidin-1-yl)cyclohexyl]amino}acetonitrile], the IC50 on JAK3 (ATP 100 μM) was determined as 0.79 µM; at Tyk2, 0.38 µM; against JAK2 (ATP 100 μM), 0.03 µM; on JAK1, 0.0062 µM.
For `N#CCCN[C@H]1CC[C@H](c2nnn3cnc4[nH]ccc4c23)CC1` [394b, 3-{[trans-4-(7H-pyrrolo[3,2-e][1,2,3]triazolo[1,5-c]pyrimidin-1-yl)cyclohexyl]amino}propanenitrile] the same measures were above 1 µM, above 1 µM, 0.09 µM and 0.015 µM.
For `FC(F)(F)CN[C@H]1CC[C@H](c2nnn3cnc4[nH]ccc4c23)CC1` [395b, trans-4-(7H-pyrrolo[3,2-e][1,2,3]triazolo[1,5-c]pyrimidin-1-yl)-N-(2,2,2-trifluoroethyl)cyclohexanamine], in that order: 0.61 µM, 0.15 µM, 0.01 µM and 0.0022 µM.
On to `c1cc2c(ncn3nnc([C@H]4CC[C@H](NCC5CC5)CC4)c23)[nH]1` [396b, trans-N-(cyclopropylmethyl)-4-(7H-pyrrolo[3,2-e][1,2,3]triazolo[1,5-c]pyrimidin-1-yl)cyclohexanamine], for which the IC50 was above 1 µM on JAK3 (ATP 100 μM), 0.71 µM at Tyk2, 0.19 µM at JAK2 (ATP 100 μM) and 0.022 µM against JAK1.
In the case of `CN(C)[C@H]1CC[C@H](c2nnn3cnc4[nH]ccc4c23)CC1` [397b, trans-N,N-dimethyl-4-(7H-pyrrolo[3,2-e][1,2,3]triazolo[1,5-c]pyrimidin-1-yl)cyclohexanamine], the IC50 against JAK3 (ATP 100 μM) was above 1 µM; on Tyk2, 0.8 µM; against JAK2 (ATP 100 μM) it was 0.21 µM; against JAK1, 0.023 µM.
In the case of `CN[C@H]1CC[C@H](c2nnn3cnc4[nH]ccc4c23)CC1` [398b, trans-N-methyl-4-(7H-pyrrolo[3,2-e][1,2,3]triazolo[1,5-c]pyrimidin-1-yl)cyclohexanamine], the IC50 against JAK3 (ATP 100 μM) is above 1 µM; against Tyk2, 0.75 µM; against JAK2 (ATP 100 μM) it was 0.11 µM; against JAK1, 0.029 µM.
For `N#CC[C@H]1CC[C@@H](c2nnn3cnc4[nH]ccc4c23)CC1` [435a, 2-[cis-4-(7H-Pyrrolo[3,2-e][1,2,3]triazolo[1,5-c]pyrimidin-1-yl)cyclohexyl]acetonitrile] the same measures were 0.72 µM, 0.17 µM, 0.021 µM and 0.0054 µM.
